In paper PMC7587356, “High-Throughput Screening for Inhibitors of the SARS-CoV-2 Protease Using a FRET-Biosensor” (Molecules, 2020):
Where a name gives a salt, the structure may show the parent alone. Read-outs that look alike come from different tables or passages of the source.

Target: SARS-CoV-2 3CLpro (Severe acute respiratory syndrome coronavirus 2, UniProt P0DTD1)
Assay: biochemical
Format: biochemical
Set-up: Replicate_1 / Replicate_2 / mean / mean (LOPAC_screen_w_protease): unit not given here
Conditions: for inhibition at 5 µM: 4 h; for mean (LOPAC screen with protease) / Replicate_1 (LOPAC screen with protease) / Replicate_2 (LOPAC screen with protease): primary screen at 5 µM
[1] = sheet LOPAC_screen_w_protease, primary screen with protease, compound at 5 µM, mean of two replicates
[2] = sheet LOPAC_screen_w_protease, primary screen with protease, compound at 5 µM, replicate 1
[3] = sheet LOPAC_screen_w_protease, primary screen with protease, compound at 5 µM, replicate 2
[4] = sheet LOPAC_screen_w_protease, LOPAC1280 at 5 µM, mean of two replicates
[5] = sheet LOPAC_screen_w_protease, LOPAC1280 at 5 µM, replicate 1
[6] = sheet LOPAC_screen_w_protease, LOPAC1280 at 5 µM, replicate 2
[7] = LOPAC1280 primary screen with protease, 5 µM compound, mean of the two replicates
[8] = LOPAC1280 primary screen with protease, 5 µM compound, replicate 2
[9] = sheet LOPAC_screen_w_protease, primary screen of LOPAC1280 at 5 µM with protease, mean of the two replicates
[10] = sheet LOPAC_screen_w_protease, primary screen of LOPAC1280 at 5 µM with protease, replicate 1
[11] = sheet LOPAC_screen_w_protease, primary screen of LOPAC1280 at 5 µM with protease, replicate 2
[12] = sheet LOPAC_screen_w_protease, LOPAC1280 primary screen at 5 µM, with protease, replicate 1, read-out: Replicate_1
[13] = sheet LOPAC_screen_w_protease, LOPAC1280 primary screen at 5 µM, with protease, replicate 2, read-out: Replicate_2
[14] = sheet LOPAC_screen_w_protease, mean of two replicates
[15] = sheet LOPAC_screen_w_protease, replicate 1
[16] = sheet LOPAC_screen_w_protease, replicate 2

N#Cc1c(-c2ccccc2)no[n+]1[O-] [4-Phenyl-3-furoxancarbonitrile]
mean [1]: 2.827
Replicate_1 [2]: 3.156
Replicate_2 [3]: 2.497

CC(C)NCC(O)c1ccc(O)c(O)c1.Cl (racemic) [(±)-Isoproterenol hydrochloride]
Replicate_1 [2]: 3.707
Replicate_2 [3]: 1.7371

CCN(CC)C(=O)c1ccc(O)c(OC)c1 [Vanillic acid diethylamide]
mean [4]: 0.9703
Replicate_1 [5]: 1.198
Replicate_2 [6]: 0.7424

Cl.NC1C=CC=C(C(=O)O)C1 (stereo not shown) [Gabaculine hydrochloride]
mean (LOPAC_screen_w_protease) [7]: 2.074
Replicate_1 (LOPAC_screen_w_protease) (LOPAC1280 primary screen with protease, 5 µM compound, replicate 1): 1.548
Replicate_2 (LOPAC_screen_w_protease) [8]: 2.6

Cl.NC1CCN(c2cccc(Cl)n2)CC1 [SR 57227A]
mean [4]: 1.074
Replicate_1 [5]: 1.181
Replicate_2 [6]: 0.9673

O=C(O)c1cc(=O)c2c(Cl)cc(Cl)cc2[nH]1 [5,7-Dichlorokynurenic acid]
mean [9]: 3.519
Replicate_1 [10]: 3.053
Replicate_2 [11]: 3.985

C[N+]1(C)[C@@H]2C[C@@H](OC(=O)[C@H](CO)c3ccccc3)C[C@H]1[C@@H]1O[C@@H]12 [(-)-Scopolamine methyl bromide]
inhibition at 5 µM (sheet LOPAC_screen_w_protease, LOPAC1280 primary screen at 5 µM, with protease, mean of two replicates, read-out: mean): -1.17%
inhibition at 5 µM [12]: 0.833%
inhibition at 5 µM [13]: -3.16%

O=C(O)/C(=C/c1c(C(=O)O)[nH]c2cc(Cl)cc(Cl)c12)c1ccccc1 [MDL 105,519]
Replicate_1: 2.708
Replicate_2: 5.657
mean: 4.183

OC[C@H]1O[C@@H](n2cnc3c(N[C@H]4CC5CCC4C5)ncnc32)[C@H](O)[C@@H]1O (stereo partly drawn) [(S)-ENBA]
mean [1]: 2.65
Replicate_1 [2]: 4.26
Replicate_2 [3]: 1.041

COc1cc2nc(N3CCN(C(=O)OCc4ccccc4)C(C(=O)NC(C)(C)C)C3)nc(N)c2cc1OC [L-765,314]
mean [4]: 1.212
Replicate_1 [5]: 3.331
Replicate_2 [6]: -0.9073

CC(N)C(O)c1ccc(O)c(O)c1 (single isomer, unassigned; (-)) [(-)-alpha-Methylnorepinephrine]
mean (LOPAC screen with protease) [14]: 8.627
Replicate_1 (LOPAC screen with protease) [15]: 8.881
Replicate_2 (LOPAC screen with protease) [16]: 8.372

NC(=Nc1ccccc1)NC(=O)c1nc(Cl)c(N)nc1N [Phenamil methanesulfonate]
inhibition at 5 µM (sheet LOPAC_screen_w_protease, primary screen with protease, mean of two replicates, read-out: mean): 2.43%
inhibition at 5 µM (sheet LOPAC_screen_w_protease, primary screen with protease, replicate 1, read-out: Replicate_1): 2.05%
inhibition at 5 µM (sheet LOPAC_screen_w_protease, primary screen with protease, replicate 2, read-out: Replicate_2): 2.81%

C[C@@H]1OC[C@H](C[N+](C)(C)C)O1.[I-] [(+)-cis-Dioxolane iodide]
mean (LOPAC screen with protease) [14]: 7.2322
Replicate_1 (LOPAC screen with protease) [15]: 5.683
Replicate_2 (LOPAC screen with protease) [16]: 8.781

NC(N)=NCCCCN=C(N)N [Arcaine sulfate]
inhibition at 5 µM (sheet LOPAC_screen_w_protease, LOPAC1280 primary screen at 5 µM, with protease, mean of the two replicates, read-out: mean): 0.608%
inhibition at 5 µM [12]: 1.59%
inhibition at 5 µM [13]: -0.37%

O=c1[nH]c2cc(Cl)ccc2c(O)c1-c1cccc(Oc2ccccc2)c1 [L-701,324]
mean (sheet LOPAC_screen_w_protease, primary screen with protease, mean of two replicates): 2.464
Replicate_1 (sheet LOPAC_screen_w_protease, primary screen with protease, replicate 1): 2.862
Replicate_2 (sheet LOPAC_screen_w_protease, primary screen with protease, replicate 2): 2.066

N[C@H](C(=O)O)c1cc(O)cc(O)c1 [(S)-3,5-Dihydroxyphenylglycine]
mean [9]: 3.456
Replicate_1 [10]: 2.928
Replicate_2 [11]: 3.983

CC(C)NCC(O)c1ccc(O)c(O)c1.Cl (single isomer, unassigned; (-)) [(-)-Isoproterenol hydrochloride]
mean (LOPAC_screen_w_protease) [7]: 2.084
Replicate_2 (LOPAC_screen_w_protease) [8]: 1.275

C[C@]12CCC(=O)C=C1CC[C@@H]1[C@@H]2CC[C@]2(C)C(=O)CC[C@@H]12 [4-Androstene-3,17-dione]
inhibition at 5 µM (read-out: Replicate_1): 0.757%
inhibition at 5 µM (read-out: Replicate_2): 1.66%
inhibition at 5 µM (read-out: mean): 1.21%
